For one experiment, the system named is CD4+ T cells. The experiment can be described thus: CD4+ T cell culture, CD4+ IFNγ+ cells by flow cytometry. The following applies: 24 hours, PMA and ionomycin final 6 hours, relative to vehicle treated wells. It counts as cell-based, mice. How it is done: CD4+ T cells are central to the generation of inflammation in a variety of conductions. In addition, CD4+ T cells are primary responders to the IL-18 cytokine. As such, CD4+ T cells were cultured in vitro in the presence of selected compounds to test for pharmacological activity.
CD4+ T cell culture. Spleens were excised from mice and crushed between frosted microscope slides. Cellular suspension was filtered, centrifuged and exposed to hypotonic lysis to remove red blood cells. CD4+ T cells were enriched by magnetic sorting. Cells were re-suspended in IMDM and cultured in CD3- and CD28-coated round bottom wells. Cells were treated with indicated compounds at 10 and 100 nM or vehicle for 24 hours. During the final 6 hours, cells were stimulated with phorbol myristate acetate and ionomycin. Cells were then collected and stained with antibodies to detect CD45+ CD4+ IFNγ+ cells by flow cytometry. Data was acquired using a FACS Celesta flow cytometer with FACSDiva software.

In another experiment the test system is DSS colitis model. The experiment in a line: DSS colitis model. The experiment is classed as in vivo, mice. The conditions noted are these: oral, 20 mg/kg once daily, DSS in drinking water for seven days; for proportion of CD4+ IFNγ+ cells in the colonic lamina propria: flow cytometry; for severity of disease by macroscopic scoring of the colon: score 0 to 4, relative to vehicle group. The source says:
Inflammation of the gastrointestinal tract can be caused by numerous factors including food antigens, infectious agents, autoimmunity, or radiation. The dextran sulfate sodium (DSS) model provides a model system where the epithelial barrier is disrupted in the distal intestine allowing for translocation of bacteria and generation of immune responses. DSS model. Mice were given DSS in drinking water for seven days. At project initiation, mice were approximately 8 weeks of age and began dosing 24 hours after being placed on DSS water. Treatments were prepared within a 0.5% methylcellulose solution. The dosage used was 20 mg/kg delivered once daily. At conclusion, colons were scored macroscopically for presence of lesions, blood, stool consistency, mucosal thickening, friability and length on a summarized score from 0 to 4. Flow cytometry. Colons were collected into RPMI/FBS buffer containing collagenase and DNase for digestion. Tissues were digested for 60 minutes under stifling at 37° C. Resultant cellular suspensions were filtered through 100 um strainers, centrifuged and washed in fresh RPMI. Following filtration, immune cells were purified by Percoll gradient of the cell-containing 40% Percoll overlayed onto 70% Percoll solution. After centrifugation, interphase was collected and washed to obtain enriched colonic lamina propria cell fractions. Cells were labeled with mixtures of extracellular and intracellular antibodies to quantify the presence of CD45+ CD3+ CD4+ CD8− IFNγ+ cells. Data was acquired using a FACS Celesta flow cytometer with FACSDiva software.

Take `COc1cc(-c2cnc(C(=O)C3CCN(C(=O)c4cnnc5ccccc45)CC3)s2)ccc1O` [Compound 11, cinnolin-4-yl(4-(5-(4-hydroxy-3-methoxyphenyl)thiazole-2-carbonyl)-piperidin-1-yl)methanone]: the “proportion of CD4+ IFNγ+ cells” value with CD4+ T cells (10 nM) was “significantly reduced”. Also, the “proportion of CD4+ IFNγ+ cells” value in the experiment with CD4+ T cells (100 nM) is on record as “significantly reduced”. Also, in the experiment on DSS colitis model, the “proportion of CD4+ IFNγ+ cells in the colonic lamina propria” value (“proportion … in the colonic lamina propria” for short) is recorded as “reducing” and the “severity of disease by macroscopic scoring of the colon” value (shortened to “severity of disease”) is “reduced”.
For the compound `O=C(c1ncc(-c2ncccc2F)s1)[C@@H]1CN(C(=O)c2cc(F)c(F)cn2)CCO1` [Compound 34, 4,5-difluoro-pyridin-2-yl(2-(S)-(5-(3-fluoropyridin-2-yl)thiazol-2-carbonyl)-morpholin-4-yl)methanone], the “proportion of CD4+ IFNγ+ cells” value in the experiment on CD4+ T cells (10 nM) and in the experiment with CD4+ T cells (100 nM) was “significantly reduced” throughout.
On to `O=C(c1ncc(-c2ncccc2F)s1)[C@@H]1CN(C(=O)c2cnnc3ccccc23)CCO1` [Compound 37, cinnolin-4-yl(2-(S)-(5-(3-fluoropyridin-2-yl)thiazol-2-carbonyl)-morpholin-4-yl)methanone], for which, in the experiment on CD4+ T cells (100 nM), the “proportion of CD4+ IFNγ+ cells” value is “significantly reduced”. Moreover, in the experiment on DSS colitis model, the “proportion … in the colonic lamina propria” value is given as “reducing” and the “severity of disease” value was “reduced”.
Take `O=C(c1ncc(-c2ncccc2F)s1)[C@@H]1CN(C(=O)c2cc(F)ccn2)CCO1` [Compound 40, 4-fluoro-pyridin-2-yl(2-(S)-(5-(3-fluoropyridin-2-yl)thiazol-2-carbonyl)-morpholin-4-yl)methanone]: the “proportion of CD4+ IFNγ+ cells” value in the experiment on CD4+ T cells (10 nM) and with CD4+ T cells (100 nM) was “significantly reduced” each time. For the same compound, the “proportion … in the colonic lamina propria” value with DSS colitis model is reported as “reducing”. Also, in the experiment with DSS colitis model, the “severity of disease” value is reported as “reduced”.
For the compound `O=C1C=C(C(=O)N2CCO[C@H](C(=O)c3ncc(-c4ccccc4F)s3)C2)NN2CC=CC12` (stereo partly drawn) [Compound 69, 2-((S)-2-(5-(2-fluorophenyl)thiazole-2-carbonyl)morpholine-4-carbonyl)-4a,7-dihydropyrrolo[1,2-b]pyridazin-4(1H)-one], the “proportion of CD4+ IFNγ+ cells” value in the experiment with CD4+ T cells (100 nM) was “significantly reduced”.

Source of the values: patent US12698281B2, “Thiazole derivatives for therapeutic use” (NIMML Institute, priority 2022, dated 2026).
